The target of the assay is T1, Human GLP-1 receptor (Homo sapiens, UniProt P43220).
T1 construct: expressed in transfected cells
Description: Measurement of GLP-1 receptor agonist activity (cAMP assay). The class given is cell-based. Summed up: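 Agonism measured as cAMP accumulation by time-resolved FRET immunoassay in CHO-K1 cells stably expressing human GLP-1 receptor. Cells treated for 1 h at 37 °C with compound and forskolin (400 μM stock), in buffer containing the PDE inhibitors IBMX (0.1 mM) and RO20-1724 (0.2 mM).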
A general note: cAMP levels reflect the balance of adenylyl cyclase and phosphodiesterase activity.

Setting [1] is: CHO-K1, hGLP-1R/CHO-K1 cells, cAMP, 100% = human GLP-1 (7-36) at 2 nM, 0% = DMSO only, read-out: Emax(%).
[2] abbreviates: hGLP-1R/CHO-K1 cells, cAMP increase, 37° C. 1 hour.
[3] abbreviates: CHO-K1, maximum effect, cAMP increase in GLP-1 R/CHO-K1 cells, 2 nM human GLP-1 (7-36) = 100%, DMSO only = 0%, read-out: Emax.
The mark [4] stands for this setting: cAMP increase in GLP-1 R/CHO-K1 cells, 2 nM human GLP-1 (7-36) = 100%, DMSO only = 0%.

Our source for the Emax and EC50 values is patent US20240217966A1, “PHARMACEUTICAL COMPOSITION CONTAINING GLP-1 RECEPTOR AGONIST HAVING FUSED RING” (Shionogi & Co., Ltd., priority 2021, published 2024).

pEC50: −log10 of the molar value. Read-outs that look alike come from different tables or passages of the source.

T1 sequence (P43220 24-463): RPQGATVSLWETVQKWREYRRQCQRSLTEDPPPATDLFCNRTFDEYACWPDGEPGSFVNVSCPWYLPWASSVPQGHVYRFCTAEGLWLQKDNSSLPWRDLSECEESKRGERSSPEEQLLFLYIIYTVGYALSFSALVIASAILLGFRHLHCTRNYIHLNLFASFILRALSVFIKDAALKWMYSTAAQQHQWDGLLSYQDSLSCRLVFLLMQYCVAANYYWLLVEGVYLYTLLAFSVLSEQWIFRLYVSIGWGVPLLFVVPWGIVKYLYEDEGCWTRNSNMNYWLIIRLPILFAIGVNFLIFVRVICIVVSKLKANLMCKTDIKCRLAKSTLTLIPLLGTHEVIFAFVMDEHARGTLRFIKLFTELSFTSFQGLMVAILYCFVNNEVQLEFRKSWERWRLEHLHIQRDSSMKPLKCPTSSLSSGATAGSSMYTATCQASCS

As usually defined, the Emax is the maximal effect, on the per cent scale that the assay sets. One may read the pEC50 as the negative decadic logarithm of the EC50, by convention in mol/L. Consider `C[C@H]1c2cc(OCc3ccc(Cl)cc3Cl)c(C(F)(F)F)cc2CCN1Cc1nc2ccc(C(=O)O)c(F)c2n1C[C@@H]1CCO1` [Compound I-201], for which the Emax under setting [1] was determined as 123%. Moreover, the pEC50 under setting [2] is 9.56. Regarding `COc1ccc(COc2cc3c(cc2C(F)(F)F)CCN(Cc2nc4c(F)cc(C(=O)O)cc4n2C[C@@H]2CCO2)[C@H]3C)cc1` [Compound I-202], the Emax under setting [1] was found to be 105%. Besides, the pEC50 under setting [2] was 8.78.

With `C[C@H]1c2cc(OCc3ccc(Cl)cn3)c(C(F)(F)F)cc2CCN1Cc1nc2c(F)cc(C(=O)O)cc2n1C[C@@H]1CCO1` [Compound I-203], the Emax under setting [1] is 104%. Under setting [2], this compound had a pEC50 of 9.51. Consider `Cc1csc(COc2cc3c(cc2C(F)(F)F)CCN(Cc2nc4c(F)cc(C(=O)O)cc4n2C[C@@H]2CCO2)[C@H]3C)n1` [Compound I-204], for which, under setting [1], the Emax was determined as 117%. Further, the pEC50 under setting [2] is 9.29. For `C[C@H]1c2cc(OCc3ccc(Cl)cc3)c(C(F)(F)F)cc2CCN1Cc1nc2c(F)cc(C(=O)O)cc2n1C[C@@H]1CCO1` [Compound I-205], the Emax under setting [1] amounted to 109%. Moreover, under setting [2], the pEC50 is 9.35. Regarding `Cc1ccc(COc2cc3c(cc2C(F)(F)F)CCN(Cc2nc4c(F)cc(C(=O)O)cc4n2C[C@@H]2CCO2)[C@H]3C)cc1` [Compound I-206], under setting [1], the Emax turned out to be 110%. Besides, the negative logarithm of the EC50 (pEC50) under setting [2] was 9.29. With `C[C@H]1c2cc(OCc3ccc(C4CC4)cc3)c(C(F)(F)F)cc2CCN1Cc1nc2c(F)cc(C(=O)O)cc2n1C[C@@H]1CCO1` [Compound I-207], the Emax under setting [1] amounted to 90.3%. The same compound had a pEC50 under setting [2] of 8.76.

For the compound `COc1cc(Cl)ccc1COc1cc2c(cc1C(F)(F)F)CCN(Cc1nc3c(F)cc(C(=O)O)cc3n1C[C@@H]1CCO1)[C@H]2C` [Compound I-208], the maximal response (Emax) under setting [1] came to 109%. Further, the pEC50 under setting [2] was 10.08.

With `C[C@H]1c2cc(OCc3ccccc3Cl)c(C(F)(F)F)cc2CCN1Cc1nc2c(F)cc(C(=O)O)cc2n1C[C@@H]1CCO1` [Compound I-209], under setting [1], the Emax turned out to be 112%. For the same compound, the pEC50 under setting [2] was 9.01. The like results for `C[C@H]1c2cc(OCc3ccc(F)cc3F)c(C(F)(F)F)cc2CCN1Cc1nc2c(F)cc(C(=O)O)cc2n1C[C@@H]1CCO1` [Compound I-210] were, in that order, 113% and 9.36. In the case of `C[C@H]1c2cc(OCc3ccc(Cl)cc3Cl)c(C(F)(F)F)cc2CCN1Cc1nc2c(F)cc(C(=O)O)cc2n1C[C@@H]1CCO1` [Compound I-211], the maximum response (Emax) under setting [1] is 103%. Under setting [2], this compound showed a negative logarithm of the EC50 (pEC50) of 9.74.

As for `C[C@H]1c2cc(OCc3ccc(OC(F)F)cc3F)c(C(F)(F)F)cc2CCN1Cc1nc2c(F)cc(C(=O)O)cc2n1C[C@@H]1CCO1` [Compound I-212], the Emax under setting [1] is 104%. The same compound gave a pEC50 under setting [2] of 9.00. Consider `C[C@H]1c2cc(OCc3cc(F)c(Cl)cc3F)c(C(F)(F)F)cc2CCN1Cc1nc2c(F)cc(C(=O)O)cc2n1C[C@@H]1CCO1` [Compound I-213], for which the Emax under setting [1] was 122%. In addition, the pEC50 under setting [2] is 9.44. `C[C@H]1c2cc(OCc3ccc(C#N)cc3F)c(C(F)(F)F)cc2CCN1Cc1nc2c(F)cc(C(=O)O)cc2n1C[C@@H]1CCO1` [Compound I-214]: the Emax under setting [1] turned out to be 104%. Also, the pEC50 under setting [2] is 9.41. On to `C[C@H]1c2cc(OCc3ccc(C(F)F)cc3F)c(C(F)(F)F)cc2CCN1Cc1nc2ccc(C(=O)O)cc2n1C[C@@H]1CCO1` [Compound I-215], for which the Emax under setting [1] is 106%. The compound also had a pEC50 under setting [2] of 8.74. On the same counts, the results for `O=C(O)c1ccc2nc(CN3CCc4cc(C(F)(F)F)c(OCc5c(F)cc(C(F)F)cc5F)cc4C3)n(C[C@@H]3CCO3)c2c1` [Compound I-216] are 103% and 8.06.

Consider `O=C(O)c1ccc2nc(CN3CCc4cc(C(F)(F)F)c(OCc5c(F)cc(OC(F)F)cc5F)cc4C3)n(C[C@@H]3CCO3)c2c1` [Compound I-217], for which the Emax under setting [1] is 103%. Also, the pEC50 under setting [2] was 8.63. Take `C[C@H]1c2nc(OCc3ccc(F)cc3)c(C(F)(F)F)cc2CCN1Cc1nc2ccc(C(=O)O)cc2n1C[C@@H]1CCO1` [Compound I-218]: the Emax under setting [1] was 109%. Also, under setting [2], the negative-log EC50 (pEC50) was 9.75. For the compound `C[C@H]1c2cc(OCc3ccc(C#N)cc3F)c(C(F)(F)F)cc2CCN1Cc1nc2ccc(C(=O)O)c(F)c2n1C[C@@H]1CCO1` [Compound I-219], the Emax under setting [1] worked out at 114%. For the same compound, under setting [2], the pEC50 is 8.92.

With `C[C@H]1c2nc(OCc3ccc(F)cc3Cl)c(C(F)(F)F)cc2CCN1Cc1nc2ccc(C(=O)O)cc2n1C[C@@H]1CCO1` [Compound I-220], the maximal effect (Emax) under setting [1] was 110%. Under setting [2], this compound had a negative-log EC50 (pEC50) of 9.60. On the same counts, the results for `C[C@H]1c2cc(OCc3ccc(C#N)cc3F)c(Cl)cc2CCN1Cc1nc2ccc(C(=O)O)cc2n1C[C@@H]1CCO1` [Compound I-221] are 125% and 8.22. On to `O=C(O)c1ccc2nc(CN3CCc4cc(C(F)(F)F)c(OCc5ccc(Cl)cc5F)nc4C3)n(C[C@@H]3CCO3)c2c1F` [Compound I-222], for which the maximal effect (Emax) under setting [1] worked out at 108%. For `C[C@H]1c2nc(OCc3ccc(Cl)cc3)c(C(F)(F)F)cc2CCN1Cc1nc2ccc(C(=O)O)c(F)c2n1C[C@@H]1CCO1` [Compound I-223], the maximal effect (Emax) under setting [1] is 103%. Under setting [2], the pEC50 is 9.92. With `COc1ccc(COc2cc3c(cc2C(F)(F)F)CCN(Cc2nc4c(OC)cc(C(=O)O)cc4n2C[C@@H]2CCO2)[C@H]3C)cc1` [Compound I-224], the maximal response (Emax) under setting [3] came out at 110%. This compound had a pEC50 under setting [4] of 8.85. For `COc1cc(C(=O)O)cc2c1nc(CN1CCc3cc(C(F)(F)F)c(OCc4ccc(Cl)cn4)cc3[C@@H]1C)n2C[C@@H]1CCO1` [Compound I-225], the maximal effect (Emax) under setting [3] was 104%. This compound also showed a negative logarithm of the EC50 (pEC50) under setting [4] of 9.46. As for `COc1cc(C(=O)O)cc2c1nc(CN1CCc3cc(C(F)(F)F)c(OCc4ccc(Cl)cc4)cc3[C@@H]1C)n2C[C@@H]1CCO1` [Compound I-226], the maximum response (Emax) under setting [3] worked out at 112%. Under setting [4], this compound had a pEC50 of 9.20.

As to `COc1cc(C(=O)O)cc2c1nc(CN1CCc3cc(C(F)(F)F)c(OCc4ccc(C)cc4)cc3[C@@H]1C)n2C[C@@H]1CCO1` [Compound I-227], the Emax under setting [3] turned out to be 103%. Under setting [4], the pEC50 is 9.52. As for `COc1cc(C(=O)O)cc2c1nc(CN1CCc3cc(C(F)(F)F)c(OCc4ccc(C5CC5)cc4)cc3[C@@H]1C)n2C[C@@H]1CCO1` [Compound I-228], the Emax under setting [3] amounted to 106%. This compound had a pEC50 under setting [4] of 8.62. Take `COc1cc(Cl)ccc1COc1cc2c(cc1C(F)(F)F)CCN(Cc1nc3c(OC)cc(C(=O)O)cc3n1C[C@@H]1CCO1)[C@H]2C` [Compound I-229]: under setting [3], the Emax is 105%. This compound also gave a pEC50 under setting [4] of 10.18. The like results for `COc1cc(C(=O)O)cc2c1nc(CN1CCc3cc(C(F)(F)F)c(OCc4ccccc4Cl)cc3[C@@H]1C)n2C[C@@H]1CCO1` [Compound I-230] were, in that order, 109% and 9.16.

Regarding `COc1cc(C(=O)O)cc2c1nc(CN1CCc3cc(C(F)(F)F)c(OCc4ccc(F)cc4F)cc3[C@@H]1C)n2C[C@@H]1CCO1` [Compound I-231], the Emax under setting [3] turned out to be 106%. Besides, the pEC50 under setting [4] is 9.55. On the same counts, the results for `COc1cc(C(=O)O)cc2c1nc(CN1CCc3cc(C(F)(F)F)c(OCc4ccc(Cl)cc4Cl)cc3[C@@H]1C)n2C[C@@H]1CCO1` [Compound I-232] are 117% and 9.65.

Turning to `COc1cc(C(=O)O)cc2c1nc(CN1CCc3cc(C(F)(F)F)c(OCc4ccc(OC(F)F)cc4F)cc3[C@@H]1C)n2C[C@@H]1CCO1` [Compound I-233], the Emax under setting [3] was 97.7%. Moreover, the negative logarithm of the EC50 (pEC50) under setting [4] is 8.89. Turning to `COc1cc(C(=O)O)cc2c1nc(CN1CCc3cc(C(F)(F)F)c(OCc4cc(F)c(Cl)cc4F)cc3[C@@H]1C)n2C[C@@H]1CCO1` [Compound I-234], the Emax under setting [3] amounted to 109%. The compound further gave a pEC50 under setting [4] of 9.45. Regarding `COc1cc(C(=O)O)cc2c1nc(CN1CCc3cc(C(F)(F)F)c(OCc4ccc(C#N)cc4F)cc3[C@@H]1C)n2C[C@@H]1CCO1` [Compound I-235], the Emax under setting [3] is 102%. This compound also had a pEC50 under setting [4] of 9.42.

For `COc1cc(C(=O)O)cc2c1nc(CN1CCc3cc(C(F)(F)F)c(OCc4ccc(F)cc4)cc3[C@@H]1C)n2C[C@@H]1CCO1` [Compound I-236], the Emax under setting [3] worked out at 106%. Under setting [4], this compound showed a pEC50 of 9.37.

For the compound `COc1cc(C(=O)O)cc2c1nc(CN1CCc3cc(C(F)(F)F)c(OCc4c(F)cc(Cl)cc4F)cc3[C@@H]1C)n2C[C@@H]1CCO1` [Compound I-237], under setting [3], the Emax was found to be 102%. Further, the pEC50 under setting [4] is 9.99. On the same counts, the results for `COc1cc(C(=O)O)cc2c1nc(CN1CCc3cc(C(F)(F)F)c(OCc4c(F)cc(F)cc4F)cc3[C@@H]1C)n2C[C@@H]1CCO1` [Compound I-238] are 106% and 9.44. `C[C@H]1c2nc(OCc3ccc(Cl)cc3)c(C(F)(F)F)cc2CCN1Cc1nc2c(F)cc(C(=O)O)cc2n1C[C@@H]1CCO1` [Compound I-239]: the Emax under setting [3] turned out to be 95.3%. The compound further showed a negative-log EC50 (pEC50) under setting [4] of 10.05.

As to `C[C@H]1c2nc(OCc3ccc(C#N)cc3F)c(C(F)(F)F)cc2CCN1Cc1nc2ccc(C(=O)O)c(F)c2n1C[C@@H]1CCO1` [Compound I-240], the Emax under setting [3] is 122%. Under setting [4], this compound had a pEC50 of 10.19. As to `C[C@H]1c2nc(OCc3ccc(C#N)cc3F)c(C(F)(F)F)cc2CCN1Cc1nc2c(F)cc(C(=O)O)cc2n1C[C@@H]1CCO1` [Compound I-241], the Emax under setting [3] turned out to be 125%. The same compound gave a pEC50 under setting [4] of 10.52.

Turning to `COc1cc(C(=O)O)cc2c1nc(CN1CCc3cc(C(F)(F)F)c(OCc4ccc(C#N)cc4F)nc3[C@@H]1C)n2C[C@@H]1CCO1` [Compound I-242], the Emax under setting [3] was determined as 116%. Under setting [4], this compound showed a pEC50 of 10.91.
